{
  "source": "ChEMBL document CHEMBL1201862",
  "about": "“PubChem BioAssay data set” (2004)",
  "key": {"SUMO-activating enzyme [1]": {"target": "T1, SUMO-activating enzyme (Homo sapiens, UniProt Q9UBT2)", "T1 sequence (Q9UBE0 whole entry)": "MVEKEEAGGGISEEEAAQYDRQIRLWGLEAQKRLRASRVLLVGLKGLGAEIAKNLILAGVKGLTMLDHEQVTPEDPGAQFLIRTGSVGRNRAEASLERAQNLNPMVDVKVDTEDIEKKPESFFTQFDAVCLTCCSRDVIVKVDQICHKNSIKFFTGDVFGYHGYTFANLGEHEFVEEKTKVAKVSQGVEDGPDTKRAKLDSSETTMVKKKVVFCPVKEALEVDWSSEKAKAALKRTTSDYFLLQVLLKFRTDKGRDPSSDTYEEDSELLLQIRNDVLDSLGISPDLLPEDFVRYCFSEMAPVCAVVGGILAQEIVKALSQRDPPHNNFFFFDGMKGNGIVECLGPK", "T1 sequence (Q9UBT2 whole entry)": "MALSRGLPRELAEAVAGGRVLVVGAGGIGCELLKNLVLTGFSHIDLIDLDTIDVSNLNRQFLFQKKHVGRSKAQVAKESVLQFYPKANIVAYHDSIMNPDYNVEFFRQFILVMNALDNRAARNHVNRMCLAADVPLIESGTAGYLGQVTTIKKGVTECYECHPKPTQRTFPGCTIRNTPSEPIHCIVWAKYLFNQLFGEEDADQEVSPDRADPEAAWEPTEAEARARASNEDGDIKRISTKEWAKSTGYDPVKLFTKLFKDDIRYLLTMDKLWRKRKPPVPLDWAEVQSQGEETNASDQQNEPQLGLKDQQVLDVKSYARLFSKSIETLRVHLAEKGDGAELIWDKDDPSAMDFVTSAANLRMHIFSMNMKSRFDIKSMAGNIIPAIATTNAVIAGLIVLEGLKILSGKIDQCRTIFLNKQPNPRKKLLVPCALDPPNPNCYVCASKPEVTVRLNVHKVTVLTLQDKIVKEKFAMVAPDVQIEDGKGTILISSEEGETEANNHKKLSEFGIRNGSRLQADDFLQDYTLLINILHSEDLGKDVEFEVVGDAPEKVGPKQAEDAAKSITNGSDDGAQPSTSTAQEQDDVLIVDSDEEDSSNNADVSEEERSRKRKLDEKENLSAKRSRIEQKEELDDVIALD", "assay": "blockers of SAE1/SAE2–UBC9 SUMO transfer – biochemical, HTRF, uHTS, primary screen (AID 2006)", "format": "protein-complex assay"}, "cells": {"assay": "cells", "format": "functional"}, "[2]": {"target": "Serine/threonine-protein phosphatase PP1-alpha catalytic subunit (Homo sapiens, UniProt P62136)", "sequence (P62136 whole entry)": "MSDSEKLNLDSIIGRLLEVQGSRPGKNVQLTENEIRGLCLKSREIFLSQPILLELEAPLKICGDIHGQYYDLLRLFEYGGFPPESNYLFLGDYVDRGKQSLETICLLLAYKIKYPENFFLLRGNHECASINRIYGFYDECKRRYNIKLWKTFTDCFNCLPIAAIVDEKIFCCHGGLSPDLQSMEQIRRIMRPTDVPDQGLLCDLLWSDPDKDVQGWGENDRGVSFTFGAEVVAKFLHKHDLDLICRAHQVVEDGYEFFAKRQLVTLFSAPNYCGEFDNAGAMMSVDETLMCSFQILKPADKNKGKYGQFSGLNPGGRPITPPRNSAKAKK", "assay": "inhibition of protein phosphatase 1 activity – biochemical, fluorescence, dose response (AID 2403);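 note: phosphatase turnover of OMFP into fluorescent 3-O-methylfluorescein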"}, "[3]": {"assay": "HIV-1 Vif–A3G interaction blockers – biochemical, TR-FRET, GST-Vif 1-94, biotin-A3G peptide, dose response retest, primary screen (AID 1117319);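 note: TR-FRET signal of purified GST-Vif binding a biotinylated A3G peptide; inhibitors lower the FRET signal by blocking Vif and A3G binding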", "format": "functional"}, "[4]": {"assay": "THP-1 cell cytotoxicity, dose response, cytotoxicity control for non-replicating M. tuberculosis project (AID 489025)", "format": "functional"}, "[5]": {"target": "Serine/threonine-protein phosphatase (Homo sapiens, UniProt Q9BPW0)", "sequence (Q9BPW0 whole entry)": "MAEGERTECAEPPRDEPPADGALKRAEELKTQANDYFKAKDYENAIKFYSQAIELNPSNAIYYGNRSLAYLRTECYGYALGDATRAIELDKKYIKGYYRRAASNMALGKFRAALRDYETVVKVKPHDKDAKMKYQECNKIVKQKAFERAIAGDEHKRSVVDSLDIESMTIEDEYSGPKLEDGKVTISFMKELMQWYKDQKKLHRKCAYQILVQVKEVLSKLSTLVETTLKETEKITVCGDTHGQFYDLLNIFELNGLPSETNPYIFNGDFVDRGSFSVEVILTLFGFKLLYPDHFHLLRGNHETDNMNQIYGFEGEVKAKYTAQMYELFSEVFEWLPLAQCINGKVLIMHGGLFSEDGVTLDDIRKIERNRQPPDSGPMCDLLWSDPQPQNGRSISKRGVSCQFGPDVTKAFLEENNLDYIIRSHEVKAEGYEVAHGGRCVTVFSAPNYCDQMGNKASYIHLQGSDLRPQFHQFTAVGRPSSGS", "assay": "Counterscreen for inhibitors of PP1: fluorescence-based biochemical high throughput dose response assay to identify inhibitors of Protein Phosphatase 5 (PP5). [Related pubchem assays: 2034 (Summary (PP5 inhibitors)), 1987 (PP5 inhibitors in singlate), 2235 (PP1 inhibitors in singlate)]"}, "[6]": {"assay": "Vero E6 cell cytotoxicity, dose response, cytotoxicity control for non-replicating M. tuberculosis project, secondary assay (AID 492998)", "format": "functional, VeroE6", "conditions": "Vero C1008"}, "[7]": {"assay": "viability loss in THP-1 monocytes – THP-1 cells, cytotoxicity control for Vif-APOBEC3G degradation inhibitor project, dose response (AID 1117359)", "format": "functional", "conditions": "THP-1"}, "SUMO-activating enzyme [8]": {"target": "T1, SUMO-activating enzyme", "assay": "blockers of UBC9-mediated SUMO conjugation – biochemical, AlphaScreen, SUMOylation inhibitor project, confirmation (AID 2018)", "format": "functional"}, "Estrogen receptor": {"target": "T2, Estrogen receptor (Homo sapiens, UniProt P03372)", "T2 sequence (P03372 whole entry)": "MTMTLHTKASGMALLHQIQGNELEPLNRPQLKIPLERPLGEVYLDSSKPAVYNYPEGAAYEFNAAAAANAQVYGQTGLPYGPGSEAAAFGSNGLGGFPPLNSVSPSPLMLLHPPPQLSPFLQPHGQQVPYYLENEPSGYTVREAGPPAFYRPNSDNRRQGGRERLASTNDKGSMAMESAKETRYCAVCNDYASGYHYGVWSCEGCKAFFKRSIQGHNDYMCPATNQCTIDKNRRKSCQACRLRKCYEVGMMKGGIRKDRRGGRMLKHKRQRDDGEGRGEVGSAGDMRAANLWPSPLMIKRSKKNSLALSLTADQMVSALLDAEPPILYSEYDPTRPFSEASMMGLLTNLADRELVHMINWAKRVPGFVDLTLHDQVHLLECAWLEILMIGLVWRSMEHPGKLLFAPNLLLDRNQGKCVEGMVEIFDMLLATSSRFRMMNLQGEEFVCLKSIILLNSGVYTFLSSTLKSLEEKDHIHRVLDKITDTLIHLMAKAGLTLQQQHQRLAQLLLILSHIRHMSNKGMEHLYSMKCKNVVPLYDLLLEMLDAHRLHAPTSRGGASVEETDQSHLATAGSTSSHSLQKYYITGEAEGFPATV", "assay": "ERα coactivator recruitment enhancers – biochemical, TR-FRET, ERα LBD, dose response (AID 737)"}, "[9]": {"target": "T3, Corticotropin-releasing factor receptor 2/Corticotropin-releasing factor-binding protein (Homo sapiens, UniProt P24387+Q13324)", "T3 sequence (Q13324 whole entry)": "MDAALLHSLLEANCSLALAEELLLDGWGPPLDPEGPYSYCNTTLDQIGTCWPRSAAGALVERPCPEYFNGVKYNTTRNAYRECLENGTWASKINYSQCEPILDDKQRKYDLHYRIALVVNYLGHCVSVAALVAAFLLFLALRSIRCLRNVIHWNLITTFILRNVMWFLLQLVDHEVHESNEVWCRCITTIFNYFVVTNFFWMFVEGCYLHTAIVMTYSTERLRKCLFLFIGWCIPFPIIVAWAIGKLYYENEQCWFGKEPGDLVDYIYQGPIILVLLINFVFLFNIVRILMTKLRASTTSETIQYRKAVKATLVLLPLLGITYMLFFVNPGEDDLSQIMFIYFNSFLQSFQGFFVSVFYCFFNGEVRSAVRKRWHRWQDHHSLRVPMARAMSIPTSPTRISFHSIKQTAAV", "T3 sequence (P24387 whole entry)": "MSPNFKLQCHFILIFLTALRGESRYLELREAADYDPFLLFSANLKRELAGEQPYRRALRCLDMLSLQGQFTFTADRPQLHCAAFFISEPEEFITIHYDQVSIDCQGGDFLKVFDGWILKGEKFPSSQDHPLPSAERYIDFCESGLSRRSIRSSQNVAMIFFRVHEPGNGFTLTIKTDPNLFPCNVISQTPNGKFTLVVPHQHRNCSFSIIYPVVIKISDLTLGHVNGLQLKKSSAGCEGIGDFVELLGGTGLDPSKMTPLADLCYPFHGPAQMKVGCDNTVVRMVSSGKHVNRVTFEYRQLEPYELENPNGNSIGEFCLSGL", "assay": "Dose Response confirmation of uHTS hits for small molecule antagonists of the CRF-binding protein and CRF-R2 receptor complex.", "format": "functional", "conditions": "read-out: IC50_Mean"}, "[10]": {"target": "T3, Corticotropin-releasing factor receptor 2/Corticotropin-releasing factor-binding protein", "assay": "activators of CRF receptor 2 with binding protein – uHTS hits, confirmation (AID 602473)", "format": "functional", "conditions": "read-out: EC50_Mean"}, "Bcl-2-like protein 10": {"target": "Bcl-2-like protein 10 (Homo sapiens, UniProt Q9HD36)", "sequence (Q9HD36 whole entry)": "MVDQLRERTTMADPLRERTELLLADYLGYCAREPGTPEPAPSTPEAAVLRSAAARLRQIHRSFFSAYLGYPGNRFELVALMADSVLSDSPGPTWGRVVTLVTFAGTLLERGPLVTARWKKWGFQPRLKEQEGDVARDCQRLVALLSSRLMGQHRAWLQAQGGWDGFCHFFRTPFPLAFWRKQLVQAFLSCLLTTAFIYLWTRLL", "assay": "Concentration-response of Bcl-B inhibitors by biochemical FP with TR3 (AID 1243)", "format": "functional"}},
  "note": "Activity calls are given as the source filed them.",
  "data": [
    {"smiles": "O=C1NC(=O)C(=Cc2ccc(-c3cc(Cl)ccc3Cl)[nH]2)C(=O)N1", "values": [
      {"measurement": "IC50", "setting": "SUMO-activating enzyme [1]", "result": "16.4 µM (active)"},
      {"measurement": "IC50", "setting": "cells", "result": "< 0.1 µM (active)"},
      {"measurement": "IC50", "setting": "[2]", "result": "5.6 µM (active)"},
      {"measurement": "IC50", "setting": "[3]", "result": "> 100 µM (active)"},
      {"measurement": "CC50", "setting": "[4]", "result": "23.1 µM (active)"},
      {"measurement": "IC50", "setting": "[5]", "result": "> 67 µM (not active)"},
      {"measurement": "CC50", "setting": "[6]", "result": "> 20 µM (active)"},
      {"measurement": "CC50", "setting": "[7]", "result": "> 40 µM (active)"},
      {"measurement": "IC50", "setting": "SUMO-activating enzyme [8]", "result": "11.6 µM (active)"}
    ]},
    {"smiles": "COC(=O)c1ccc(CSc2nc3c(cnn3-c3ccc(F)cc3)c(=O)[nH]2)o1", "values": [
      {"measurement": "EC50", "setting": "Estrogen receptor", "result": "12.9 µM (not active)"},
      {"measurement": "IC50", "setting": "[9]", "result": "> 47.1 µM (inactive)"},
      {"measurement": "EC50", "setting": "[10]", "result": "> 53 µM (inactive)"}
    ]},
    {"smiles": "Clc1ccc(C2C=C(c3ccccc3)Nc3ncnn32)cc1", "note": "(stereo not drawn)", "values": [
      {"measurement": "EC50", "setting": "Bcl-2-like protein 10", "result": "14.2 µM (active)"}
    ]}
  ]
}
